Consider 13 molecules from patent publication US20110059043A1, “CHEMICAL COMPOUNDS” (priority 2009, published 2011).

Data set [1] deals with T1, Recombinant HCV polymerase (BK strain) (Hepatitis C virus genotype 1b, UniProt P26663).
T1 construct: Recombinant HCV polymerase (BK strain) was expressed and purified from E. coli with a 21 amino acid C-terminal deletion; His6; made in house; host or cells: E. coli
Nature of the data set: HCV polymerase enzyme assay (radiometric [33P]-UTP incorporation). In kind it is biochemical, HCV 1b. How it is done:
Compounds were tested for inhibition of HCV polymerase using a radiometric [^33P]-UTP incorporation assay and a biotinylated U13:PolyA primer:template RNA substrate.
Recombinant HCV polymerase (BK strain) was expressed and purified from E. coli with a 21 amino acid C-terminal deletion and a His6-tag. The general assay buffer consisted of 20 mM Tris (pH 7.5), 25 mM KCl, 5 mM MgCl2, 3 mM DTT, 0.5 mg/ml BSA, 0.01% Tween20. The standard reaction, in 96 well plates, contained 10 μl of diluted compound, 50 μl of substrate and 40 μl of enzyme. Compounds, supplied as 10 mM stocks in DMSO, were diluted initially in neat DMSO, and subsequently buffer was added to give a DMSO concentration of 30%; 10 μl of this was added to the assay plate to give a final concentration in the 100 μl assay of 3% DMSO. The biotinylated U13:PolyA RNA substrate was pre-annealed with 40 μM 5′-biotinylated U13 (Dharmacon) and 213 μg/ml PolyA (Amersham Biosciences) in water incubated at 70° C. for 5 minutes before being cooled on ice. Substrate (50 μl) was added in buffer to give a final concentration in the 100 μl assay of 125 nM biotinylated U13:0.63 μg/ml PolyA and 200 nM UTP with 0.4 μCi [^33P]-UTP per well (Perkin Elmer). The reaction was initiated by the addition of 40 μl of enzyme in buffer to give 100 nM final concentration. The reaction was incubated at 25° C. for 100 minutes and then stopped by addition of 100 μl of 100 mM EDTA. The samples were then transferred to 96 well Streptavidin-coated FlashPlates (Perkin Elmer) and incubated at room temperature for ˜1 hour to allow binding to occur. The plates were then washed three times with phosphate-buffered saline containing 0.05% Tween20 in an automated plate washer to remove unincorporated [^33P]-UTP, and then counted in a
Each plate included a set of positive controls (no compound, maximum signal) and negative controls (no enzyme, minimum signal) and in each run at least one reference is compound was included to validate the assay. The IC50, concentration required to inhibit the enzyme activity by 50%, was calculated using an 8-point IC50 curve and fitted using the program XLfit (IDBS).

For data set [2], the system named is HCV replicon cells Huh 9B. The data set can be described thus: HCV replicon assay (luciferase). The format is cell-based. The note with it: Hepatitis C virus, reduction of replicon level by 50% vs untreated cell control, 72 h. The procedure:
(§1) HCV replicon cells Huh 9B (ReBlikon), containing the firefly luciferase—ubiquitin—neomycin phosphotransferase fusion protein and EMCV-IRES driven HCV polyprotein with cell culture adaptive mutations.
(§2) Cells were cultured at 37° C. in a 5% CO2 environment and split twice a week on seeding at 2×10^6 cells/flask on day 1 and 1×10^6 3 days later. G418 at 0.5 mg/ml was added to the culture medium but not the assay medium. The culture medium consisted of DMEM with […] glucose and glutamax (Gibco 61965-026) supplemented with 1×non-essential amino acids (Invitrogen 11140-035), penicillin (100 IU/ml)/streptomycin (100 μg/ml) (Invitrogen 15140-122), FCS (10%, 50 ml) and […] (Invitrogen 10131-027) & 10% Australian foetal calf serum (Invitrogen 10099-141).
(§3) A flask of cells was trypsinised and a cell count carried out. Cells were diluted to 100,000 cells/ml and 100 μl of this used to seed one opaque white 96-well plate (for the replicon assay) and one flat-bottomed clear plate (for the tox assay) for every five compounds to be tested for IC50. Wells G12 and H12 were left empty in the clear plate as the blank. Plates were then incubated at 37° C. in a 5% CO2 environment for 24 h.
(§4) On the following day compound dilutions are made up in medium at twice their desired final concentration in a clear round bottomed plate. All dilutions have a final DMSO concentration of 1%.
(§5) Once the dilution plate had been made up, controls and compounds were transferred to the assay plates (containing the cells) at 100 μl/well in duplicate wells. Exception: no compound was added to wells A1 and A2 of either plate and 100 μl of 1% DMSO was added to these instead. Plates were then incubated at 37° C. with 5% CO2 for 72 h.
At the end of the incubation time, the cells in the white plate were harvested by washing in PBS (100 μL per well) and gently tapping dry before addition of […] of lysis buffer (25 mM tris-phosphate, 8 mM MgCl2, 1 mM DTT, 1% Triton X-100, 15% glycerol. pH to 7.8 using KH2PO4 prior to triton and glycerol addition. Substrate was prepared: 23.5 mM beetle luciferin (Promega E1603), 26 mM ATP (Sigma O-2060) in […] Tris buffer pH 7.8 aliquoted and stored at −80° C. was thawed and diluted 1:50 in luciferase assay buffer (20 mM Tricine (Sigma T-0377), 1.07 mM magnesium carbonate hydroxide (Sigma M-5671), 0.1 mM EDTA (Sigma E-5134), 2.67 mM MgSO4(BDH 101514Y), 33.3 mM dithiothreitol (Sigma 150460) pH 7.8).
The M injector of the microplate luminometer (Lmax, Molecular Devices) was primed with 5×300 μl injections of the diluted substrate. After 5-60 min incubation in lysis buffer at room temperature, a plate was inserted into the luminometer and 100 μl luciferase assay reagent was added by the injector on the luminometer. The signal was measured using a 1 second delay followed by a 4 second measurement programme. The IC50, the concentration of the drug required for reducing the replicon level by 50% in relation to the untreated cell control value, can be calculated from the plot of the percentage reduction of the luciferase activity vs. drug concentration.
Background: Replicon systems follow genome replication, usually without infectious particles.

The test system of data set [3] is HCV replicon cells Huh 9B. The format is cell-based. The note with it: concentration reducing total cell area by 50% relative to DMSO controls; 72 h. How it is done:
as §1, §2, §3, §4, §5
The clear plate was stained with 100 μl 0.5% methylene blue in 50% ethanol at room temperature for lh, followed by solvation of the absorbed methylene blue in 100 μl per well of 1% lauroylsarcosine. Absorbance of the plate was measured on a microplate spectrophotometer (Molecular Devices) and the absorbance for each concentration of compound expressed as a proportion of the relative DMSO control. The TD50, the concentration of drug required to reduce the total cell area by 50% relative to the DMSO controls, can be calculated by plotting the absorbance at 620 nm minus background against drug concentration.

T1 sequence (P26663 2420-2989): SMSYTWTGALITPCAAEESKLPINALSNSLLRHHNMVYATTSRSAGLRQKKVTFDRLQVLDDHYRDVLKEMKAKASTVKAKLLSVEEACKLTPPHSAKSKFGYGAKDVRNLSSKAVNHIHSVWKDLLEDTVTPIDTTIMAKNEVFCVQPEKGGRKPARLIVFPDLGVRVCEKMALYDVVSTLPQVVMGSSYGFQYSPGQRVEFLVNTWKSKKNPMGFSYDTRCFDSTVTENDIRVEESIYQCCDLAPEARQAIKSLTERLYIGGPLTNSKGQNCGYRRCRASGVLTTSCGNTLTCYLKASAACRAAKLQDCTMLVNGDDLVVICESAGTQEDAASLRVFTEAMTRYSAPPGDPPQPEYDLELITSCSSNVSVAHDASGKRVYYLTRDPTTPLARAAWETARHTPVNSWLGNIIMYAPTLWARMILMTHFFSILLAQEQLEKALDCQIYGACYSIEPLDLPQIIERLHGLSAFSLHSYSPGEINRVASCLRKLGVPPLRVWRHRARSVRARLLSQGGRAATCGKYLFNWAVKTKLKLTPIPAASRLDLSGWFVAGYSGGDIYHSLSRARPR

For the molecule `COCCCOc1ccc(Cl)cc1C(=O)NC1N=C(c2c(Cl)cc(Cl)cc2Cl)c2ccccc2NC1=O` (stereo not drawn) [Example 1, 5-chloro-2-(3-methoxypropoxy)-N-(2-oxo-5-(2,4,6-trichlorophenyl)-2,3-dihydro-1H-benzo[e][1,4]diazepin-3-yl)benzamide], the figures for the IC50 in data set [1] and in data set [2] were 354 nM and 210 nM, respectively. Moreover, the “Replicon Assay Value TD50” value in data set [3] was over 25 µM.
Taken in the same sequence, the figures for `CO[C@@H](C)COc1ccc(Cl)cc1C(=O)NC1N=C(c2c(Cl)cc(Cl)cc2Cl)c2ccccc2NC1=O` (stereo partly drawn) [Example 2, 5-Chloro-2-((S)-2-methoxypropoxy)-N-(2-oxo-5-(2,4,6-trichlorophenyl)-2,3-dihydro-1H-benzo[e][1,4]diazepin-3-yl)benzamide] were 167 nM, 382 nM and over 25 µM.
Taken in the same sequence, the figures for `CCOCCOc1ccc(Cl)cc1C(=O)NC1N=C(c2c(Cl)cc(Cl)cc2Cl)c2ccccc2NC1=O` (stereo not drawn) [Example 3, 5-Chloro-2-(2-ethoxyethoxy)-N-(2-oxo-5-(2,4,6-trichlorophenyl)-2,3-dihydro-1H-benzo[e][1,4]diazepin-3-yl)benzamide] were 111 nM, 82.9 nM and 16.177 µM.
With `COCC(C)Oc1ccc(Cl)cc1C(=O)NC1N=C(c2c(Cl)cc(Cl)cc2Cl)c2ccccc2NC1=O` (stereo not drawn) [Example 4, 5-Chloro-2-(1-methoxypropan-2-yloxy)-N-(2-oxo-5-(2,4,6-trichlorophenyl)-2,3-dihydro-1H-benzo[e][1,4]diazepin-3-yl)benzamide], the IC50 in data set [1] came to 261 nM; in data set [2], 304 nM. The “Replicon Assay Value TD50” value in data set [3] was over 25 µM.
With `COCCOCCOc1ccc(Cl)cc1C(=O)NC1N=C(c2c(Cl)cc(Cl)cc2Cl)c2ccccc2NC1=O` (stereo not drawn) [Example 5, 5-Chloro-2-(2-(2-methoxyethoxy)ethoxy)-N-(2-oxo-5-(2,4,6-trichlorophenyl)-2,3-dihydro-1H-benzo[e][1,4]diazepin-3-yl)benzamide], the IC50 in data set [1] is 209 nM; in data set [2], 490 nM. Further, the “Replicon Assay Value TD50” value in data set [3] was found to be 15.913 µM.
For `CC(C)COCCOc1ccc(Cl)cc1C(=O)NC1N=C(c2c(Cl)cc(Cl)cc2Cl)c2ccccc2NC1=O` (stereo not drawn) [Example 6, 5-Chloro-2-(2-isobutoxyethoxy)-N-(2-oxo-5-(2,4,6-trichlorophenyl)-2,3-dihydro-1H-benzo[e][1,4]diazepin-3-yl)benzamide] the same measures were 715 nM, 849 nM and 10.604 µM.
For `CCCCCOCCOc1ccc(Cl)cc1C(=O)NC1N=C(c2c(Cl)cc(Cl)cc2Cl)c2ccccc2NC1=O` (stereo not drawn) [Example 7, 5-Chloro-N-(2-oxo-5-(2,4,6-trichlorophenyl)-2,3-dihydro-1H-benzo[e][1,4]diazepin-3-yl)-2-(2-(pentyloxy)ethoxy)benzamide] the same measures were 662 nM, 1450 nM and 11.806 µM.
Taken in the same sequence, the figures for `CCOCCOCCOc1ccc(Cl)cc1C(=O)NC1N=C(c2c(Cl)cc(Cl)cc2Cl)c2ccccc2NC1=O` (stereo not drawn) [Example 8, 5-Chloro-2-(2-(2-ethoxyethoxy)ethoxy)-N-(2-oxo-5-(2,4,6-trichlorophenyl)-2,3-dihydro-1H-benzo[e][1,4]diazepin-3-yl)benzamide] were 1070 nM, 1340 nM and 11.724 µM.
Consider `O=C(NC1N=C(c2c(Cl)cc(Cl)cc2Cl)c2ccccc2NC1=O)c1cc(Cl)ccc1OCC1CCCO1` (stereo not drawn) [Example 9, 5-Chloro-N-(2-oxo-5-(2,4,6-trichlorophenyl)-2,3-dihydro-1H-benzo[e][1,4]diazepin-3-yl)-2-((tetrahydrofuran-2-yl)methoxy)benzamide], for which the IC50 in data set [1] was 296 nM; in data set [2], 610 nM. The “Replicon Assay Value TD50” value in data set [3] is over 25 µM.
For `CCCCOCCOc1ccc(Cl)cc1C(=O)NC1N=C(c2c(Cl)cc(Cl)cc2Cl)c2ccccc2NC1=O` (stereo not drawn) [Example 10, 2-(2-Butoxyethoxy)-5-chloro-N-(2-oxo-5-(2,4,6-trichlorophenyl)-2,3-dihydro-1H-benzo[e][1,4]diazepin-3-yl)benzamide] the same measures were 757 nM, 338 nM and over 25 µM.
Taken in the same sequence, the figures for `O=C(NC1N=C(c2c(Cl)cc(Cl)cc2Cl)c2ccccc2NC1=O)c1cc(Cl)ccc1OCCOc1ccccc1` (stereo not drawn) [Example 11, 5-Chloro-N-(2-oxo-5-(2,4,6-trichlorophenyl)-2,3-dihydro-1H-benzo[e][1,4]diazepin-3-yl)-2-(2-phenoxyethoxy)benzamide] were 864 nM, 1150 nM and over 25 µM.
Taken in the same sequence, the figures for `CN(C)CCCOc1ccc(Cl)cc1C(=O)NC1N=C(c2c(Cl)cc(Cl)cc2Cl)c2ccccc2NC1=O` (stereo not drawn) [Example 12, 5-Chloro-2-(3-(dimethylamino)propoxy)-N-(2-oxo-5-(2,4,6-trichlorophenyl)-2,3-dihydro-1H-benzo[e][1,4]diazepin-3-yl)benzamide] were 3130 nM, 5510 nM and 4.253 µM.
Turning to `CN(C)CCOCCOc1ccc(Cl)cc1C(=O)NC1N=C(c2c(Cl)cc(Cl)cc2Cl)c2ccccc2NC1=O` (stereo not drawn) [Example 13, 5-Chloro-2-(2-(2-(dimethylamino)ethoxy)ethoxy)-N-(2-oxo-5-(2,4,6-trichlorophenyl)-2,3-dihydro-1H-benzo[e][1,4]diazepin-3-yl)benzamide], the results for the IC50 in data set [1] and in data set [2] were 1700 nM and 3170 nM, respectively. Also, the “Replicon Assay Value TD50” value in data set [3] came out at 6.754 µM.

What is called IC50 is the concentration that gives 50% inhibition.
